Test results from patent US7402311B2, “Composition and method for treating non-bacterial cystitis” (priority 2003, dated 2008).

Columns and labels:
[1] = Tests of bioavailability / transmural intestinal absorption of quercetin; format: in vivo; details: quercetin alone
[2] = test system: patients without positive bacterial cultures localized to the prostatic fluid; experiment: Example II: double blind study using 30 patients; format: in vivo
Description: A double blind study using 30 patients without positive bacterial cultures localized to the prostatic fluid are enrolled in a double blind study. Seventeen of the patients receive a composition comprised of quercetin in amount of 500 milligrams, bromelin in an amount of 10 milligrams, and papain in an amount of 10 milligrams as the active ingredients thereof. After a randomized study is completed, an additional fifteen patients are treated in an open label study with only the […]. […] The mean symptom score improves from 21.0 to 13.1 in the group receiving quercetin, but from 20.2 to 18.8 in the placebo group. This represents an improvement of 35%. In those patients which receive only the quercetin, without the papain and bromelin, with obtainable secretions, the white blood cell count in the decreases from 16.8 to 5.3, versus a decrease from 13.1 to 8.3 in the placebo patients.

[3] = test system: chronic interstitial cystitis syndromes; details: patients taking quercetin alone; cited from earlier work

bioavailability [1]: does not have a high bioavailability
transmural intestinal absorption [1]: relatively low
Compound: O=c1c(O)c(-c2ccc(O)c(O)c2)oc2cc(O)cc(O)c12 [quercetin]
improvement of mean symptom score ([2]; double blind study): 35%
mean symptom score, after treatment ([2]; double blind study, end value): 13.1
mean symptom score, before treatment ([2]; double blind study, start value): 21.0
white blood cell count, after treatment ([2]; patients with obtainable secretions, end value): 5.3
white blood cell count, before treatment ([2]; patients with obtainable secretions, start value): 16.8
pain [3]: controlled
severe urinary symptoms [3]: least likely to improve
symptomatic response [3]: significant
